Laboratory results reported in US20100137313A1 (ASTRAZENECA AB, priority 2008, published 2010).

Target: S. pneumoniae Topoisomerase IV ATPase (ParE) (Streptococcus pneumoniae serotype 4, UniProt Q59961)
Assay: S. pneumoniae Topoisomerase IV ATPase inhibition
Format: biochemical
Conditions: values marked * are an average of two or more data points; for inhibition at 13 µM: read-out: % Inh (13 μM) of S. pneumoniae Topoisomerase IV ATPase
In short: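 ParE ATPase (1.25 nM) run with 160 μM ATP and 5 μg/ml sheared salmon sperm DNA in Tris pH 8.0, Mg2+, glycerol, DTT, Brij-35. Phosphate released read by malachite green/molybdate absorbance at 650 nm. IC50 from 10 compound concentrations; DMSO (2%) as 0% and EDTA (20 μM) as 100% inhibition.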

Sequence of S. pneumoniae Topoisomerase IV ATPase (ParE) (Q59961 whole entry): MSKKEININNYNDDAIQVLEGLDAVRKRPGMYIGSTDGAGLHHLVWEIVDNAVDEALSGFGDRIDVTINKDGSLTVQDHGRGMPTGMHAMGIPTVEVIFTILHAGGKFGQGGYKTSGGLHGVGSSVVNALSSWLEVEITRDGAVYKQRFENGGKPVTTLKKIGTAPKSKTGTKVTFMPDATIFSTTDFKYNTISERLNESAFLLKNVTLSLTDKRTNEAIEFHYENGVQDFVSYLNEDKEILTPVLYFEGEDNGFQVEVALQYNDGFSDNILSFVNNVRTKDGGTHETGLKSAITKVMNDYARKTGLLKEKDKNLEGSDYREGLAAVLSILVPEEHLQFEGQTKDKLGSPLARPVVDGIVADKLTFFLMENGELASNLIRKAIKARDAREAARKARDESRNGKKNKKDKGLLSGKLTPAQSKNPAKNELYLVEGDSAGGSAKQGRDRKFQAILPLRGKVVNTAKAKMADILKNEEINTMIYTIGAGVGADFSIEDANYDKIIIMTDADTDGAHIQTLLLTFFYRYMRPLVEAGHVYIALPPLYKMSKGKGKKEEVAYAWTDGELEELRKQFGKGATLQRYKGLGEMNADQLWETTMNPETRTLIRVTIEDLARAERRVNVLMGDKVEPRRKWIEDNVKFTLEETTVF

Q: Which “% Inh (13 μM) of S. pneumoniae Topoisomerase IV ATPase” value does the source give for “(E)-3-{3-[2-(3- Methoxy-5- tetrazol-1-yl- phenylamino)- 4-morpholin-4- yl-pyrimnidin-5- yl]-phenyl}- acrylic acid [Example 406]” here?
A: Its value is 99%.

Q: For O=C(O)c1cncc(-c2cnc(Nc3cc(F)cc(F)c3)nc2-n2ccc(C(F)(F)F)n2)c1 [Example 639, 5-{2-[(3,5-difluorophenyl)amino]-4-[3-(trifluoromethyl)-1H-pyrazol-1-yl]pyrimidin-5-yl}pyridine-3-carboxylic acid], which inhibition at 13 µM is on record?
A: The inhibition at 13 µM was 100%.

Q: With Cc1cc(C(F)(F)F)nn1-c1nc(Nc2ccc3c(c2)OCO3)ncc1-c1cncc(C(=O)O)c1 [Example 671, 5-{2-(1,3-benzodioxol-5-ylamino)-4-[5-methyl-3-(trifluoromethyl)-1H-pyrazol-1-yl]pyrimidin-5-yl}pyridine-3-carboxylic acid] as the compound, how does the inhibition at 13 µM read?
A: Its inhibition at 13 µM is 92%.

Q: CC(=O)c1cccc(Nc2ncc(-c3cccc(/C=C/C(=O)O)c3)c(-n3ccc(C(F)(F)F)n3)n2)c1 [Example 688, (2E)-3-(3-{2-[(3-acetylphenyl)amino]-4-[3-(trifluoromethyl)-1H-pyrazol-1-yl]pyrimidin-5-yl}phenyl)prop-2-enoic acid] was tested. Which inhibition at 13 µM did it give?
A: The inhibition at 13 µM was 99%.

Q: How did the inhibition at 13 µM turn out when COc1cc(F)cc(Nc2ncc(-c3cnc(OC)c(C(=O)NS(C)(=O)=O)c3)c(-n3nc(C(F)(F)F)cc3C)n2)c1 [Example 900, 5-(2-(3-fluoro-5-methoxyphenylamino)-4-(5-methyl-3-(trifluoromethyl)-1H-pyrazol-1-yl)pyrimidin-5-yl)-2-methoxy-N-(methylsulfonyl)nicotinamide] was run?
A: Its inhibition at 13 µM is 100%.

Q: For Cc1cc(C(F)(F)F)nn1-c1nc(Nc2ccc(F)c(Cl)c2)ncc1-c1cncc(C(=O)NCCS(C)(=O)=O)c1 [Example 926, 5-(2-(3-chloro-4-fluorophenylamino)-4-(5-methyl-3-(trifluoromethyl)-1H-pyrazol-1-yl)pyrimidin-5-yl)-N-(2-(methylsulfonyl)ethyl)nicotinamide], which inhibition at 13 µM is on record?
A: The inhibition at 13 µM was 100%.

Q: Which inhibition at 13 µM does the source give for Cc1cc(C(F)(F)F)nn1-c1nc(Nc2cc(F)cc(F)c2)ncc1-c1cncc(C(=O)O)c1 [Example 640, 5-{2-[(3,5-difluorophenyl)amino]-4-[5-methyl-3-(trifluoromethyl)-1H-pyrazol-1-yl]pyrimidin-5-yl}pyridine-3-carboxylic acid] here?
A: The inhibition at 13 µM was 100%.

Q: COCCCNc1nc(Nc2ccc(F)c(Cl)c2)ncc1-c1ccc2sc(C(=O)O)cc2c1 [Example 307, 5-(2-(3-choloro-4-fluorophenylamino)-4-(3-methoxypropylamino)-pyrimidin-5-yl)benzo[b]thiophene-2-carboxylic acid] was tested. Which inhibition at 13 µM did it give?
A: The inhibition at 13 µM was 80.6%.

Q: For COc1cc(Cl)cc(Nc2ncc(-c3cnc(OC)c(C(=O)O)c3)c(-n3nc(C(F)(F)F)cc3C)n2)c1 [Example 759, 5-{2-[(3-chloro-5-methoxyphenyl)amino]-4-[5-methyl-3-(trifluoromethyl)-1H-pyrazol-1-yl]pyrimidin-5-yl}-2-methoxypyridine-3-carboxylic acid], which inhibition at 13 µM is on record?
A: Its inhibition at 13 µM is 100%.

Q: Which inhibition at 13 µM does the source give for COc1ncc(-c2cnc(Nc3cc(C)cc(C)c3)nc2-n2nc(C(F)(F)F)cc2C)cc1C(=O)NS(=O)(=O)CCCN1CCOCC1 [Example 829, 5-{2-[(3,5-dimethylphenyl)amino]-4-[5-methyl-3-(trifluoromethyl)-1H-pyrazol-1-yl]pyrimidin-5-yl}-2-methoxy-N-{[3-(morpholin-4-yl)propyl]sulfonyl}pyridine-3-carboxamide] here?
A: Its inhibition at 13 µM is 100%.

Q: With COc1cc(Nc2ncc(-c3cnc(OC)c(C(=O)NS(C)(=O)=O)c3)c(-n3ccc(C(F)(F)F)n3)n2)cc(OC)c1 [Example 901, 5-(2-(3,5-dimethoxyphenylamino)-4-(3-(trifluoromethyl)-1H-pyrazol-1-yl)pyrimidin-5-yl)-2-methoxy-N-(methylsulfonyl)nicotinamide] as the compound, how does the inhibition at 13 µM read?
A: The inhibition at 13 µM was 97%.

Q: For O=C(O)/C=C/c1cccc(-c2cnc(Nc3ccc(F)cc3)nc2N2CCOCC2)c1 [Example 447], which inhibition at 13 µM is on record?
A: The inhibition at 13 µM was 50%.

Q: Which inhibition at 13 µM does the source give for CCOC(=O)c1cncc(-c2cnc(Nc3ccc(F)c(Cl)c3)nc2N2CC(C)OC(C)C2)c1 (stereo not drawn) [Example 139, ethyl 5-(2-(3-chloro-4-fluorophenylamino)-4-(2,6-dimethylmorpholino)pyrimidin-5-yl)nicotinate] here?
A: The inhibition at 13 µM was 80.1%.

Q: CCOC(=O)c1cncc(-c2cnc(Nc3ccc(F)c(Cl)c3)nc2N2CCC(F)CC2)c1 [Example 121, ethyl 5-[2-[(3-chloro-4-fluorophenyl)amino]-4-(4-fluoropiperidin-1-yl)pyrimidin-5-yl]pyridine-3-carboxylate] was tested. Which inhibition at 13 µM did it give?
A: Its inhibition at 13 µM is 49.6%.

Q: With Cc1cc(C)cc(Nc2ncc(-c3cccc(/C=C/C(=O)O)c3)c(-n3nc(C(F)(F)F)cc3C)n2)c1 [Example 618, (2E)-3-(3-{2-[(3,5-dimethylphenyl)amino]-4-[5-methyl-3-(trifluoromethyl)-1H-pyrazol-1-yl]pyrimidin-5-yl}phenyl)prop-2-enoic acid] as the compound, how does the inhibition at 13 µM read?
A: The inhibition at 13 µM was 98%.

Q: With CCn1cc(-c2cnc(Nc3cc(C)cc(OC)c3)nc2-n2ccc(C(F)(F)F)n2)cc(C(=O)NS(C)(=O)=O)c1=O [Example 1175, 1-ethyl-5-{2-[(3-methoxy-5-methylphenyl)amino]-4-[3-(trifluoromethyl)-1H-pyrazol-1-yl]pyrimidin-5-yl}-N-(methylsulfonyl)-2-oxo-1,2-dihydropyridine-3-carboxamide] as the compound, how does the inhibition at 13 µM read?
A: The inhibition at 13 µM was 99%.

Q: With COc1cc(Nc2ncc(-c3cnc(N(C)C)c(C(=O)O)c3)c(-n3ccc(C(F)(F)F)n3)n2)cc(OC)c1 [Example 587, 5-(2-(3,5-dimethoxyphenylamino)-4-(3-(trifluoromethyl)-1H-pyrazol-1-yl)pyrimidin-5-yl)-2-(dimethylamino)nicotinic acid] as the compound, how does the inhibition at 13 µM read?
A: Its inhibition at 13 µM is 100%.

Q: With COc1cc(Nc2ncc(-c3cccc(/C=C/C(=O)O)c3)c(N[C@@H]3CCOC3)n2)cc(OC)c1 [Example 357, (R,E)-3-(3-(2-(3,5-dimethoxyphenylamino)-4-(tetrahydrofuran-3-ylamino)pyrimidin-5-yl)phenyl)acrylic acid] as the compound, how does the inhibition at 13 µM read?
A: Its inhibition at 13 µM is 85.3%.

Q: How did the inhibition at 13 µM turn out when O=C(O)/C=C/c1cccc(-c2cnc(Nc3ccc(F)c(Cl)c3)nc2N2CCOCC2)c1 [Example 290, (E)-3-(3-(2-(3-chloro-4-fluorophenylamino)-4-morpholinopyrimidin-5-yl)phenyl)acrylic acid] was run?
A: The inhibition at 13 µM was 80.5%.

Q: COc1cc(Cl)cc(Nc2ncc(-c3cncc(C(=O)O)c3)c(-n3nc(C(F)(F)F)cc3C)n2)c1 [Example 775, 5-{2-[(3-chloro-5-methoxyphenyl)-amino]-4-[5-methyl-3-(trifluoromethyl)-1H-pyrazol-1-yl]pyrimidin-5-yl}pyridine-3-carboxylic acid] was tested. Which inhibition at 13 µM did it give?
A: The inhibition at 13 µM was 100%.

Q: For N#Cc1cc(-c2cnc(Nc3ccc(F)c(Cl)c3)nc2-n2ccc(C(F)(F)F)n2)ccn1 [Example 890, 4-(2-(3-chloro-4-fluorophenylamino)-4-(3-(trifluoromethyl)-1H-pyrazol-1-yl)pyrimidin-5-yl)picolinonitrile], which inhibition at 13 µM is on record?
A: The inhibition at 13 µM was 91%.

Q: Which inhibition at 13 µM does the source give for Fc1ccc(Nc2ncc(-c3cncnc3)c(NCCc3cccnc3)n2)cc1Cl [Example 45, N^2-(3-chloro-4-fluorophenyl)-N^4-(2-pyridin-3-ylethyl)-5-pyrimidin-5-ylpyrimidine-2,4-diamine] here?
A: The inhibition at 13 µM was 81.9%.

Q: Which inhibition at 13 µM does the source give for Cc1[nH]ncc1CCCNc1nc(Nc2ccc(F)c(Cl)c2)ncc1-c1cncc(C(=O)O)c1 [Example 274, 5-(2-(3-chloro-4-fluorophenylamino)-4-(3-(5-methyl-1H-pyrazol-4-yl)propylamino)pyrimidin-5-yl)nicotinic acid] here?
A: The inhibition at 13 µM was 88%.

Q: CCOC(=O)/C=C/c1cccc(-c2cnc(Nc3ccc(F)c(Cl)c3)nc2N2CCOC(CO)C2)c1 (stereo not drawn) [Example 977, (E)-ethyl 3-(3-(2-(3-chloro-4-fluorophenylamino)-4-(2-(hydroxymethyl)morpholino)pyrimidin-5-yl)phenyl)acrylate] was tested. Which inhibition at 13 µM did it give?
A: The inhibition at 13 µM was 74%.

Q: For O=C(O)c1cncc(-c2cnc(Nc3ccc(F)c(Cl)c3)nc2NCCc2ccncc2)c1 [Example 230, 5-[2-(3-Chloro-4-fluoro-phenylamino)-4-(2-pyridin-4-yl-ethylamino)-pyrimidin-5-yl]-nicotinic acid], which inhibition at 13 µM is on record?
A: Its inhibition at 13 µM is 79.6%.

Q: CCS(=O)(=O)NC(=O)c1cc(-c2cnc(Nc3cc(OC)cc(OC)c3)nc2-n2nc(C(F)(F)F)cc2C)cn(CCOC)c1=O [Example 1162, 5-(2-(3,5-dimethoxyphenylamino)-4-(5-methyl-3-(trifluoromethyl)-1H-pyrazol-1-yl)pyrimidin-5-yl)-N-(ethylsulfonyl)-1-(2-methoxyethyl)-2-oxo-1,2-dihydropyridiine-3-carboxamide] was tested. Which inhibition at 13 µM did it give?
A: The inhibition at 13 µM was 100%.

Q: Which inhibition at 13 µM does the source give for COc1ncc(-c2cnc(Nc3ccc(F)c(Cl)c3)nc2-n2nc(C(F)(F)F)cc2C)cc1C(=O)O [Example 1067, 5-(2-(3-chloro-4-fluorophenylamino)-4-(5-methyl-3-(trifluoromethyl)-1H-pyrazol-1-yl)pyrimidin-5-yl)-2-methoxynicotinic acid] here?
A: Its inhibition at 13 µM is 98%.

Q: CCOC(=O)c1cncc(-c2cnc(Nc3ccc(F)c(Cl)c3)nc2N2CCC2)c1 [Example 126, ethyl 5-[4-(azetidin-1-yl)-2-[(3-chloro-4-fluorophenyl)amino]pyrimidin-5-yl]pyridine-3-carboxylate] was tested. Which inhibition at 13 µM did it give?
A: Its inhibition at 13 µM is 35.7%.

Q: NC(=O)CCNc1nc(Nc2ccc(F)c(Cl)c2)ncc1-c1cncc(C(=O)O)c1 [Example 226, 5-[4-(2-Carbamoyl-ethylamino)-2-(3-chloro-4-fluoro-phenylamino)-pyrimidin-5-yl]-nicotinic acid] was tested. Which inhibition at 13 µM did it give?
A: The inhibition at 13 µM was 79.5%.

Q: How did the inhibition at 13 µM turn out when Fc1ccc(Nc2ncc(-c3cncnc3)c(N3CCC(N4CCOCC4)CC3)n2)cc1Cl [Example 62, N-(3-chloro-4-fluorophenyl)-4-(4-morpholin-4-ylpiperidin-1-yl)-5-pyrimidin-5-ylpyrimidin-2-amine] was run?
A: Its inhibition at 13 µM is 71%.
